Measured values reported in ChEMBL document CHEMBL1201862, “PubChem BioAssay data set” (2004).
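Five compound concentrations were applied to cells in 96-well plates for 48 hours; endpoints were derived by simple linear interpolation of the resulting dose-response curve. GI50 marks 50% less growth.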 The source made the active and inactive calls. Rule as the data show it: active = GI50 up to about 1.1 µM and inactive = higher.

How the values were obtained:
Experiment in all cases: NCI anticancer screen, dose series, 48 h
[1] = system: HCT-116
[2] = system: LXFL 529
[3] = system: A498
[4] = system: NCI-H522
[5] = system: SW-620
[6] = system: M19-MEL
[7] = system: SK-MEL-2
[8] = system: XF498
[9] = system: RPMI-8226
[10] = system: A549
[11] = system: LOX IMVI
[12] = system: UACC-257
[13] = system: K562
[14] = system: UACC-62
[15] = system: TK-10
[16] = system: CCRF-CEM
[17] = system: SNB-75
[18] = system: DMS-114
[19] = system: COLO 205
[20] = system: SK-OV-3
[21] = system: HCT-15
[22] = system: 786-0
[23] = system: DMS-273
[24] = system: EKVX
[25] = system: NCI-H226
[26] = system: Malme-3M
[27] = system: NCI-H23
[28] = system: SNB-19
[29] = system: DLD-1
[30] = system: KM12
[31] = system: SN12C
[32] = system: OVCAR-5
[33] = system: ACHN
[34] = system: SNB-78
[35] = system: SF-539
[36] = system: SF-268
[37] = system: RXF 393
[38] = system: HL-60
[39] = system: OVCAR-3
[40] = system: OVCAR-8
[41] = system: HT-29
[42] = system: M14
[43] = system: UO-31
[44] = system: SK-MEL-28
[45] = system: MOLT-4
[46] = system: SR
[47] = system: U-251
[48] = system: HOP-18
[49] = system: KM-20L2
[50] = system: HOP-62
[51] = system: IGROV-1
[52] = system: SF-295
[53] = system: HOP-92
[54] = system: HCC 2998
[55] = system: CAKI-1
[56] = system: OVCAR-4
[57] = system: SK-MEL-5
[58] = system: NCI-H460

For `CCOC(=O)N1CCc2cc(OC)c(OC)cc2/C1=C\c1ccc(OC)c(OC)c1`, the GI50 [1] was 21.9 µM (inactive), the GI50 [2] was 29.5 µM (inactive) and the GI50 [3] was 23.2 µM (inactive). For the same compound, the GI50 [4] was 25 µM (inactive), the GI50 [5] was 32.7 µM (inactive) and the GI50 [6] was 26.1 µM (inactive). The GI50 [7] was 12.1 µM (inactive), the GI50 [8] was > 10 µM (inactive) and the GI50 [9] was 24.4 µM (inactive). For the same compound, the GI50 [10] was 26.8 µM (inactive), the GI50 [11] was 18.8 µM (inactive) and the GI50 [12] was 23.6 µM (inactive). The GI50 [13] was > 10 µM (inactive), the GI50 [14] was 22.9 µM (inactive) and the GI50 [15] was 25.2 µM (inactive). For the same compound, the GI50 [16] was 20.7 µM (inactive), the GI50 [17] was 27 µM (inactive) and the GI50 [18] was 35.3 µM (inactive). For the same compound, the GI50 [19] was 21.6 µM (inactive), the GI50 [20] was 54 µM (inactive) and the GI50 [21] was 31 µM. The GI50 [22] was 19.9 µM (inactive), the GI50 [23] was 25.5 µM (inactive) and the GI50 [24] was 28.1 µM (inactive). For the same compound, the GI50 [25] was 23.4 µM (inactive), the GI50 [26] was 20.2 µM (inactive) and the GI50 [27] was 39 µM (inactive). The GI50 [28] was 39.2 µM (inactive), the GI50 [29] was 37 µM (inactive) and the GI50 [30] was 29.6 µM (inactive). The GI50 [31] was 26.4 µM (inactive), the GI50 [32] was 38.3 µM (inactive) and the GI50 [33] was 26.3 µM (inactive). For the same compound, the GI50 [34] was 35.7 µM (inactive), the GI50 [35] was 23.2 µM (inactive) and the GI50 [36] was 37.8 µM (inactive). For the same compound, the GI50 [37] was 17.1 µM (inactive), the GI50 [38] was 19.5 µM (inactive) and the GI50 [39] was 26 µM (inactive). For the same compound, the GI50 [40] was 30.1 µM (inactive), the GI50 [41] was 19 µM (inactive) and the GI50 [42] was > 10 µM (inactive). The GI50 [43] was 21 µM (inactive), the GI50 [44] was 33.3 µM (inactive) and the GI50 [45] was 27.7 µM (inactive). For the same compound, the GI50 [46] was 29.1 µM (inactive), the GI50 [47] was 30.3 µM (inactive) and the GI50 [48] was 29.5 µM (inactive). The GI50 [49] was 21.2 µM (inactive), the GI50 [50] was 41.6 µM (inactive) and the GI50 [51] was 45.5 µM (inactive). For the same compound, the GI50 [52] was 22.9 µM (inactive), the GI50 [53] was 15.8 µM (inactive) and the GI50 [54] was 33.3 µM (inactive).
`O=c1c2cc(Br)ccc2nc(CNc2ccccc2)n1-c1ccccc1` was tested, and the GI50 [1] was 13.4 µM (inactive), the GI50 [2] was 14.9 µM (inactive) and the GI50 [3] was 34.6 µM (inactive). The GI50 [4] was 6.84 µM (inactive), the GI50 [5] was 12.7 µM (inactive) and the GI50 [6] was 13.9 µM (inactive). For the same compound, the GI50 [7] was 20.7 µM (inactive), the GI50 [8] was 15.7 µM (inactive) and the GI50 [9] was 8.97 µM (inactive). For the same compound, the GI50 [55] was 3.02 µM (inactive), the GI50 [10] was 21.7 µM (inactive) and the GI50 [11] was 7.5 µM (inactive). For the same compound, the GI50 [12] was 23.2 µM (inactive), the GI50 [13] was 14.6 µM (inactive) and the GI50 [14] was 8.51 µM (inactive). The GI50 [15] was 21.7 µM (inactive), the GI50 [16] was 3.09 µM (inactive) and the GI50 [56] was 6.38 µM (inactive). For the same compound, the GI50 [17] was 20.5 µM (inactive), the GI50 [18] was 11.5 µM (inactive) and the GI50 [19] was 17.4 µM (inactive). The GI50 [20] was 36.2 µM (inactive), the GI50 [21] was 16.7 µM and the GI50 [22] was 14.6 µM (inactive). For the same compound, the GI50 [57] was 15.6 µM (inactive), the GI50 [23] was 25.8 µM (inactive) and the GI50 [24] was 21.9 µM (inactive). For the same compound, the GI50 [25] was 18.5 µM (inactive), the GI50 [26] was 14.8 µM (inactive) and the GI50 [27] was 13.6 µM (inactive). The GI50 [28] was 26.9 µM (inactive), the GI50 [29] was 9.02 µM (inactive) and the GI50 [30] was 26.7 µM (inactive). The GI50 [31] was 14.1 µM (inactive), the GI50 [32] was 52.8 µM (inactive) and the GI50 [33] was 18.7 µM (inactive). The GI50 [34] was 21.1 µM (inactive), the GI50 [35] was 16.2 µM (inactive) and the GI50 [36] was 17.4 µM (inactive). The GI50 [37] was 15.7 µM (inactive), the GI50 [38] was 16.8 µM (inactive) and the GI50 [39] was 21.8 µM (inactive). For the same compound, the GI50 [40] was 23.3 µM (inactive), the GI50 [41] was 16.7 µM (inactive) and the GI50 [42] was 20.7 µM (inactive). For the same compound, the GI50 [43] was > 43.9 µM (inactive), the GI50 [44] was 22.4 µM (inactive) and the GI50 [45] was 9.59 µM (inactive). For the same compound, the GI50 [46] was 6.52 µM (inactive), the GI50 [47] was 15.2 µM (inactive) and the GI50 [58] was 17.4 µM (inactive). For the same compound, the GI50 [48] was 36.7 µM (inactive), the GI50 [49] was 59 µM (inactive) and the GI50 [50] was 30.9 µM (inactive). The GI50 [51] was 15.8 µM (inactive), the GI50 [52] was 24.2 µM (inactive) and the GI50 [53] was 19.1 µM (inactive). The GI50 [54] was 19.5 µM (inactive).
